In brackets after ≈: the same amount, converted by molar mass.
How the values were obtained:
Format in all cases: functional
[1] = test system: Streptococcus mutans; assay: Antimicrobial activity against viridans group Streptococcus mutans at 0.12 ug/ml by broth microdilution method
[2] = test system: Enterococcus gallinarum; assay: Antimicrobial activity against Enterococcus gallinarum at 1 ug/ml by broth microdilution method
[3] = test system: Streptococcus vestibularis; assay: Antimicrobial activity against viridans group Streptococcus vestibularis at 0.25 ug/ml by broth microdilution method
[4] = test system: Enterococcus durans; assay: Antimicrobial activity against Enterococcus durans at 0.5 ug/ml by broth microdilution method
[5] = test system: Streptococcus mitis; assay: Antimicrobial activity against viridans group Streptococcus mitis at 1 ug/ml by broth microdilution method
[6] = test system: Corynebacterium jeikeium; assay: Antimicrobial activity against Corynebacterium jeikeium by broth microdilution method
[7] = test system: Listeria monocytogenes; assay: Antimicrobial activity against Listeria monocytogenes at 2 ug/ml by broth microdilution method
[8] = test system: Streptococcus mutans; assay: Antimicrobial activity against viridans group Streptococcus mutans at 0.25 ug/ml by broth microdilution method
[9] = test system: Streptococcus equinus; assay: Antimicrobial activity against viridans group Streptococcus bovis at 0.12 ug/ml by broth microdilution method
[10] = test system: Enterococcus gallinarum; assay: Antimicrobial activity against Enterococcus gallinarum at 0.12 ug/ml by broth microdilution method
[11] = test system: Streptococcus gordonii; assay: Antimicrobial activity against viridans group Streptococcus gordonii at 0.5 ug/ml by broth microdilution method
[12] = test system: Aerococcus; assay: Antimicrobial activity against Aerococcus spp. at 0.5 ug/ml by broth microdilution method
[13] = test system: Enterococcus durans; assay: Antimicrobial activity against Enterococcus durans at 0.12 ug/ml by broth microdilution method
[14] = test system: Enterococcus avium; assay: Antimicrobial activity against Enterococcus avium by broth microdilution method
[15] = test system: Streptococcus; assay: Antimicrobial activity against beta hemolytic Streptococci group G at <= 0.06 ug/ml by broth microdilution method
[16] = test system: Streptococcus oralis; assay: Antimicrobial activity against viridans group Streptococcus oralis at by broth microdilution method
[17] = test system: Corynebacterium jeikeium; assay: Antimicrobial activity against Corynebacterium jeikeium at 0.5 ug/ml by broth microdilution method
[18] = test system: Streptococcus mutans; assay: Antimicrobial activity against viridans group Streptococcus mutans at 2 ug/ml by broth microdilution method
[19] = test system: Streptococcus constellatus; assay: Antimicrobial activity against viridans group Streptococcus constellatus at 0.25 ug/ml by broth microdilution method
[20] = test system: Corynebacterium pseudodiphtheriticum; assay: Antimicrobial activity against Corynebacterium pseudodiphtheriticum at 1 ug/ml by broth microdilution method
[21] = test system: Streptococcus mutans; assay: Antimicrobial activity against viridans group Streptococcus mutans by broth microdilution method
[22] = test system: Streptococcus parasanguinis; assay: Antimicrobial activity against viridans group Streptococcus parasanguis at 0.12 ug/ml by broth microdilution method
[23] = test system: Streptococcus intermedius; assay: Antimicrobial activity against viridans group Streptococcus intermedius at 0.25 ug/ml by broth microdilution method
[24] = test system: Corynebacterium amycolatum; assay: Antimicrobial activity against Corynebacterium amycolatum at <= 0.06 ug/ml by broth microdilution method
[25] = test system: Aerococcus; assay: Antimicrobial activity against Aerococcus spp. at 2 ug/ml by broth microdilution method
[26] = test system: Enterococcus hirae; assay: Antimicrobial activity against Enterococcus hirae at 2 ug/ml by broth microdilution method
[27] = test system: Streptococcus constellatus; assay: Antimicrobial activity against viridans group Streptococcus constellatus at 2 ug/ml by broth microdilution method
[28] = test system: Corynebacterium sp.; assay: Antimicrobial activity against Corynebacterium spp. at 1 ug/ml by broth microdilution method
[29] = test system: Streptococcus anginosus; assay: Antimicrobial activity against viridans group Streptococcus anginosus at <= 0.06 ug/ml by broth microdilution method
[30] = test system: Bacillus cereus; assay: Antimicrobial activity against Bacillus cereus at <= 0.06 ug/ml by broth microdilution method
[31] = test system: Streptococcus mitis; assay: Antimicrobial activity against viridans group Streptococcus mitis at 0.25 ug/ml by broth microdilution method
[32] = test system: Streptococcus; assay: Antimicrobial activity against beta hemolytic Streptococci group G at 0.5 ug/ml by broth microdilution method
[33] = test system: Corynebacterium jeikeium; assay: Antimicrobial activity against Corynebacterium jeikeium at 0.25 ug/ml by broth microdilution method
[34] = test system: Streptococcus intermedius; assay: Antimicrobial activity against viridans group Streptococcus intermedius at 0.12 ug/ml by broth microdilution method
[35] = test system: Bacillus cereus; assay: Antimicrobial activity against Bacillus cereus by broth microdilution method
[36] = test system: Enterococcus avium; assay: Antimicrobial activity against Enterococcus avium at 4 ug/ml by broth microdilution method
[37] = test system: Streptococcus; assay: Antimicrobial activity against beta hemolytic Streptococci group G at 0.12 ug/ml by broth microdilution method
[38] = test system: Enterococcus durans; assay: Antimicrobial activity against Enterococcus durans at <= 0.06 ug/ml by broth microdilution method
[39] = test system: Bacillus cereus; assay: Antimicrobial activity against Bacillus cereus at 2 ug/ml by broth microdilution method
[40] = test system: Streptococcus mitis; assay: Antimicrobial activity against viridans group Streptococcus mitis by broth microdilution method
[41] = test system: Streptococcus sanguinis; assay: Antimicrobial activity against viridans group Streptococcus sanguinis at 0.5 ug/ml by broth microdilution method
[42] = test system: Streptococcus equinus; assay: Antimicrobial activity against viridans group Streptococcus bovis at 2 ug/ml by broth microdilution method
[43] = test system: Enterococcus hirae; assay: Antimicrobial activity against Enterococcus hirae at 1 ug/ml by broth microdilution method
[44] = test system: Streptococcus vestibularis; assay: Antimicrobial activity against viridans group Streptococcus vestibularis by broth microdilution method
[45] = test system: Bacillus cereus; assay: Antimicrobial activity against Bacillus cereus at 0.12 ug/ml by broth microdilution method
[46] = test system: Corynebacterium striatum; assay: Antimicrobial activity against Corynebacterium striatum by broth microdilution method
[47] = test system: Enterococcus casseliflavus; assay: Antimicrobial activity against Enterococcus casseliflavus at 4 ug/ml by broth microdilution method
[48] = test system: Bacillus sp.; assay: Antimicrobial activity against Bacillus spp. at 0.25 ug/ml by broth microdilution method; conditions: Bacillus sp. (in: firmicutes)
[49] = test system: Enterococcus casseliflavus; assay: Antimicrobial activity against Enterococcus casseliflavus at 0.12 ug/ml by broth microdilution method
[50] = test system: Listeria monocytogenes; assay: Antimicrobial activity against Listeria monocytogenes at 0.12 ug/ml by broth microdilution method
[51] = test system: Streptococcus equinus; assay: Antimicrobial activity against viridans group Streptococcus bovis at 1 ug/ml by broth microdilution method
[52] = test system: Micrococcus luteus; assay: Antimicrobial activity against Micrococcus luteus at 0.12 ug/ml by broth microdilution method
[53] = test system: Streptococcus intermedius; assay: Antimicrobial activity against viridans group Streptococcus intermedius at <= 0.06 ug/ml by broth microdilution method
[54] = test system: Streptococcus oralis; assay: Antimicrobial activity against viridans group Streptococcus oralis at 0.12 ug/ml by broth microdilution method
[55] = test system: Streptococcus gordonii; assay: Antimicrobial activity against viridans group Streptococcus gordonii at 1 ug/ml by broth microdilution method
[56] = test system: Listeria monocytogenes; assay: Antimicrobial activity against Listeria monocytogenes at 0.5 ug/ml by broth microdilution method

CC(=O)NC[C@H]1CN(c2ccc(N3CCOCC3)c(F)c2)C(=O)O1 [LINEZOLID]
inhibition at 0.12 µg/mL [1]: 0% | inhibition at 1 µg/mL [2]: 30.3% | inhibition at 0.25 µg/mL [3]: 0% | inhibition at 0.5 µg/mL [4]: 8.2% | inhibition at 1 µg/mL [5]: 99.1% | MIC50 [6]: 0.25 µg/mL (≈ 0.741 µM) | MIC90 [6]: 0.5 µg/mL (≈ 1.48 µM) | inhibition at 2 µg/mL [7]: 100% | inhibition at 0.25 µg/mL [8]: 0% | inhibition at 0.12 µg/mL [9]: 0% | inhibition at 0.12 µg/mL [10]: 0% | inhibition at 0.5 µg/mL [11]: 33.3% | inhibition at 0.5 µg/mL [12]: 31.8% | inhibition at 0.12 µg/mL [13]: 0% | MIC50 [14]: 1 µg/mL (≈ 2.96 µM) | MIC90 [14]: 2 µg/mL (≈ 5.93 µM) | Inhibition [15]: 0.5% | MIC50 [16]: 1 µg/mL (≈ 2.96 µM) | MIC90 [16]: 1 µg/mL (≈ 2.96 µM) | inhibition at 0.5 µg/mL [17]: 98.3% | inhibition at 2 µg/mL [18]: 100% | inhibition at 0.25 µg/mL [19]: 12.4% | inhibition at 1 µg/mL [20]: 100% | MIC50 [21]: 1 µg/mL (≈ 2.96 µM) | MIC90 [21]: 2 µg/mL (≈ 5.93 µM) | inhibition at 0.12 µg/mL [22]: 0% | inhibition at 0.25 µg/mL [23]: 0% | Inhibition [24]: 0% | inhibition at 2 µg/mL [25]: 100% | inhibition at 2 µg/mL [26]: 100% | inhibition at 2 µg/mL [27]: 100% | inhibition at 1 µg/mL [28]: 99.6% | Inhibition [29]: 2.9% | Inhibition [30]: 1.7% | inhibition at 0.25 µg/mL [31]: 4.4% | inhibition at 0.5 µg/mL [32]: 8.2% | inhibition at 0.25 µg/mL [33]: 67.8% | inhibition at 0.12 µg/mL [34]: 0% | MIC50 [35]: 1 µg/mL (≈ 2.96 µM) | MIC90 [35]: 1 µg/mL (≈ 2.96 µM) | inhibition at 4 µg/mL [36]: 100% | inhibition at 0.12 µg/mL [37]: 0.5% | Inhibition [38]: 0% | inhibition at 2 µg/mL [39]: 100% | MIC50 [40]: 1 µg/mL (≈ 2.96 µM) | MIC90 [40]: 1 µg/mL (≈ 2.96 µM) | inhibition at 0.5 µg/mL [41]: 36.6% | inhibition at 2 µg/mL [42]: 100% | inhibition at 1 µg/mL [43]: 37.5% | MIC50 [44]: 1 µg/mL (≈ 2.96 µM) | MIC90 [44]: 1 µg/mL (≈ 2.96 µM) | inhibition at 0.12 µg/mL [45]: 1.7% | MIC50 [46]: 0.25 µg/mL (≈ 0.741 µM) | MIC90 [46]: 0.5 µg/mL (≈ 1.48 µM) | inhibition at 4 µg/mL [47]: 100% | inhibition at 0.25 µg/mL [48]: 4.9% | inhibition at 0.12 µg/mL [49]: 0% | inhibition at 0.12 µg/mL [50]: 0% | inhibition at 1 µg/mL [51]: 87.2% | inhibition at 0.12 µg/mL [52]: 0% | Inhibition [53]: 0% | inhibition at 0.12 µg/mL [54]: 0.7% | inhibition at 1 µg/mL [55]: 100% | inhibition at 0.5 µg/mL [56]: 0.7%
